Results on 51 molecules are retold here after PubChem BioAssay AID1996.

Structures are written as SMILES. In brackets after ≈: the same amount, converted by molar mass.

For the data set the following is noted: buffer; pH 7.4; 200.0 µM.
Consider `Cc1onc(-c2c(Cl)cccc2Cl)c1C(=O)O/N=C(\C#N)c1c(Cl)cccc1Cl`, for which the solubility (kinetic) – broadly, solubility judged after dilution from a stock solution rather than from solid – was determined as 62.9 µg/mL (≈ 134 µM).

`Cc1ccc(S(=O)(=O)N2CCC3(CC2)OCCO3)cc1` registered a solubility (kinetic) of over 44.6 µg/mL. For `Nc1c(C(=O)Nc2ccccc2)c2nc3ccccc3nc2n1-c1ccc(O)cc1` the value was 0.7 µg/mL (≈ 1.77 µM). Molecule `Cc1ccc(C(=O)C2CCN(C(=S)NCC3CCCO3)CC2)cc1` (stereo unspecified) came in with a solubility (kinetic) of 46.7 µg/mL (≈ 135 µM).

In turn, `O=C(Cn1c(=O)oc2ccccc21)NCCc1ccccc1` showed a kinetic solubility of 44 µg/mL (≈ 148 µM). `CCOC(=O)c1c(C)[nH]c(C)c1C(=O)COC(=O)c1cccnc1Cl` had a kinetic solubility of over 54.7 µg/mL.

`O=C(CSc1nc(C2CC2)nc2ccccc12)N1CCCCC1` registered a solubility (kinetic) of 46.9 µg/mL (≈ 143 µM). For `O=C(CSc1ncccn1)Nc1cccc2ccccc12` the value was over 44.3 µg/mL; for `CC(C)CNC(=O)C1CCN(CC2CCCCC2)CC1.O=C(O)C(=O)O`, over 55.6 µg/mL. Under `O=S(=O)(NCc1ccccc1)c1cccc2nsnc12` stands 44.2 µg/mL (≈ 145 µM); under `Cc1nc(Cl)sc1C(=O)Nc1ccc(C(F)(F)F)cc1`, 6.6 µg/mL (≈ 20.6 µM); under `Cc1ccccc1NC(=O)COC(=O)c1cccnc1`, over 40.5 µg/mL. The molecule `CC1CC(C)CN(S(=O)(=O)c2ccc3oc(=O)ccc3c2)C1` (stereo unspecified) displayed a solubility (kinetic) of 14 µg/mL (≈ 43.6 µM).

`O=C(NCCCn1ccnc1)c1ccc(-c2ccccc2)cc1` yielded a kinetic solubility of over 45.8 µg/mL. `CCOc1cc(-c2nc3n(c(=O)c2C#N)CCS3)ccc1O` had a solubility (kinetic) of 5.7 µg/mL (≈ 18.1 µM).

In the case of `N#CCCN(Cc1ccccc1)S(=O)(=O)c1cccs1`, the kinetic solubility was over 46 µg/mL. `Fc1ccc(CNCc2ccco2)cc1` registered a solubility (kinetic) of 11.8 µg/mL (≈ 57.5 µM).

For the molecule `Cn1c(=O)c2c(nc(SCCN3CCOCC3)n2C)n(C)c1=O`, the solubility (kinetic) is over 50.9 µg/mL. `CC(C)(CNc1ccc(C(F)(F)F)cc1[N+](=O)[O-])N1CCOCC1` registered a solubility (kinetic) of 5.5 µg/mL (≈ 15.8 µM). Take `Cc1ccc(N(C)S(=O)(=O)c2cccc(C(=O)OCC(=O)c3c(N)n(C)c(=O)n(C)c3=O)c2)cc1`: the kinetic solubility was determined as 8.1 µg/mL (≈ 16.2 µM). Under `COCCCNC(=S)Nc1ccc(C)cc1` stands over 35.8 µg/mL.

As for `O=C(NCCc1ccc2c(c1)OCCO2)c1ccccn1`, the kinetic solubility was over 42.6 µg/mL. `CC1=C(C(=O)OC(C)C)C(c2ccc(O)cc2)NC(=O)N1` (stereo unspecified): the solubility (kinetic) was over 43.5 µg/mL. On to `CN1CCSc2ccc(C(=O)Nc3ccc(Cl)cc3)cc21`, for which the kinetic solubility turned out to be 0.5 µg/mL (≈ 1.57 µM).

On to `Cc1c(Cl)ccc(S(=O)(=O)NCCN2CCOCC2)c1Cl`, for which the solubility (kinetic) is over 53 µg/mL. Under `NC(=O)C1CCN(C(=O)c2cc(-c3ccc(Cl)cc3)nc3ccccc23)CC1` stands over 59.1 µg/mL; under `Cc1cccc(C(C)C)c1NC(=O)c1ccc(OCC2CCCO2)cc1` (stereo unspecified), 12.1 µg/mL (≈ 34.2 µM); under `N#Cc1c(F)cccc1N1CCC(C#N)CC1`, over 34.4 µg/mL. Under `COc1cc(SC)ccc1C(=O)N(Cc1ccccc1)c1ccccn1` stands over 54.7 µg/mL; under `CC(NC(=S)NC(=O)c1cccs1)c1ccccc1` (stereo unspecified), 8.2 µg/mL (≈ 28.2 µM).

In turn, `O=C(OCC(=O)N1CCOCC1)c1ccc(Br)cc1` returned a solubility (kinetic) of over 49.2 µg/mL. For `O=[N+]([O-])C(C1CCS(=O)(=O)C1)C1CCS(=O)(=O)C1` (stereo unspecified) the value was 41.8 µg/mL (≈ 141 µM).

For `C=CCNC(=O)CN(Cc1ccccc1)S(=O)(=O)c1ccccc1`, the solubility (kinetic) is over 51.7 µg/mL. For `O=C(Nc1ccsc1C(=O)N1CCCC1)c1ccccc1` the value was under 0.3 µg/mL.

Molecule `CC(=O)Nc1ccc(Oc2ccccc2)cc1` yielded a kinetic solubility of 33.6 µg/mL (≈ 148 µM).

`Cc1cccc(N2Cc3ccc(Br)cc3C2)c1` came in with a solubility (kinetic) of 4.8 µg/mL (≈ 16.7 µM). Molecule `Cc1onc(-c2c(Cl)cccc2Cl)c1C(=O)c1ccc(F)cc1` returned a solubility (kinetic) of under 0.7 µg/mL.

For `CCS(=O)(=O)N1CCC(C(=O)Nc2ccccc2OC)CC1`, the solubility (kinetic) turned out to be 43.3 µg/mL (≈ 133 µM). For `Cc1ccc(/C=C(\C#N)C(=O)NC(C)c2ccccc2)o1` (stereo unspecified) the value was 8.6 µg/mL (≈ 30.7 µM); for `CCCCOc1ccc(C(=O)NNC(=O)c2cnccn2)cc1OC`, over 51.7 µg/mL; for `CCOc1ccccc1NC(=O)Nc1cccc(NC(C)=O)c1`, over 47 µg/mL. Under `O=C(CN1C(=O)NC2(CCCC2)C1=O)NCc1cccc(Cl)c1` stands 42.4 µg/mL (≈ 126 µM).

`CC(=O)Nc1ccc(N2C(=O)CC(Sc3nccc(C)n3)C2=O)cc1` (stereo unspecified) yielded a kinetic solubility of over 53.5 µg/mL.

On to `COc1ccc(OC)c(CN2CCCC(C(=O)c3sccc3C)C2)c1` (stereo unspecified), for which the solubility (kinetic) was over 53.9 µg/mL. Regarding `CC(C)C(Nc1ccc(C(F)(F)F)cc1[N+](=O)[O-])C(=O)O` (stereo unspecified), the kinetic solubility is over 45.9 µg/mL. `COC(=O)Cn1c(C)nc([N+](=O)[O-])c1Br`: the solubility (kinetic) turned out to be 31.9 µg/mL (≈ 115 µM).

With `CCCc1ccc(C(=O)/C=C/N(C)C)cc1`, the kinetic solubility was 26.9 µg/mL (≈ 124 µM). For `COCCCNc1nc2nonc2nc1N1CCN2CCCC2C1` (stereo unspecified) the value was over 50 µg/mL. Under `CCCCCN1C=CC=C/C1=C\C=C(C#N)C#N` stands 6.9 µg/mL (≈ 28.8 µM); under `O=S(=O)(Nc1ccccc1N1CCOCC1)c1ccccc1C(F)(F)F`, 7.3 µg/mL (≈ 18.9 µM).

`Clc1ccc(-c2csc(-c3cccnc3)n2)s1` displayed a solubility (kinetic) of 0.7 µg/mL (≈ 2.51 µM).
